Entries after “also recorded” stand apart in the source; their conditions may differ.
What was measured:
[1] = tested on: endogenous ULK1; assay: Immunoblot of endogenous ULK1 Ser555 phosphorylation in primary murine hepatocytes; type: cell-based; details: wild-type vs AMPK-deficient, 2 mM metformin for 2 h
Procedure: Data shown as mean+/−SEM. * p<0.01 (B) Primary hepatocytes derived from ULK1^+/+ or ULK1^+/− mice or AMPKa1^−/− a2^L/+ or AMPKa1^−/− a2^L/L as described in methods were placed in media containing 2 mM metformin (met) or vehicle (veh) for 2 h. Lysates were immunoblotted with the indicated antibodies.
Primary hepatocytes were isolated. Briefly, livers were perfused with Hank's balanced salt solution (HESS, KCI, 5.4 mM; KH2PO4, 0.45 mM; NaCl, 138 mM; NaHCO2, 4.2 mM; Na2HPO4, 0.34 mM; glucose, 5.5 mM; HEPES, 1 M; EGTA, 50 mM; CaCl2, 50 mM; pH 7.4). Livers were washed at a rate of 5 ml/min using the portal vein before collagenase (0.025%) was added. Cell viability was assessed by the trypan blue exclusion test and was always higher than 60%. […]
Cell lysis, immunoprecipitations, and mammalian autophagy analysis. […] Immunoprecipitated proteins were denatured by the addition of 20 pl of sample buffer and boiling for 5 minutes, resolved by 8%-16% SDSPAGE, and analyzed by immunoblottina as described. […] Quantification of westerns blots was achieved using Kodak Multi Gage software and normalizing to the appropriate loading control (actin when comparing p62 or LC3, or total protein level when comparing phospho-specific antibodies). […]

[2] = tested on: ULK1; assay: Tandem mass spectrometry (LC/MS/MS) of phosphorylation sites on myc-ULK1 from HEK293T cells; type: cell-based, human
Procedure: FIG. 7A is a diagram of all LC/MS/MS identified in vivo phosphorylation sites in human ULK1. Myc-ULK1 was transfected into human embryonic kidney (HEK)-293T cells, treated with 5 mM phenformin to reduce cellular ATP for 1 hour and immunoprecipitated with anti myc antibody. The IP was run out on SDS PAGE, stained with coomassie, and the band corresponding to myc-ULK1 was cut out, and isolated and subjected to tryptic digest and LC/MS/MS analysis. Three indicated sites matching the AMPK substrate motif were identified, all mapping to the serine-rich unstructured region between the N-terminal kinase domain and the conserved C-terminus that mediates ULK1 binding to its subunits Atg13 and FIP200.
FIG. 7B is a bar graph of quantitative mass spec spectrometry (MS/MS TIC ratio quantification) data showing that tryptic peptides containing Phospho5er555 and Phospho-5er637 of ULK1 are induced by treatment of HEK293T cells with 5 mM phenformin for 1 h.
Mass Spectrometry. Myc-ULK1 overexpressed in HEK293T cells was treated with vehicle or 5 mM phenformin for 1 hour, IP'd with anti myc antibody (Cell Signaling), run out on SDS-PAGE gel and coomassie stained. […] Peptide ions from AMPK predicted phosphorylation sites were also targeted in MS/MS mode for quantitative analyses. […]
Relative Quantification of Phosphorylation Sites. […]

[3] = tested on: ULK1; assay: Immunoblot with phospho-specific antibodies against ULK1 Ser467 and Ser555 in transfected HEK293T cells; type: cell-based, human; details: HEK293T cells with myc-tagged ULK1, 1 mM phenformin for 1 h vs vehicle
Procedure: FIGS. 1A-1F show ULK1 is a conserved substrate of AMPK. (A) Clustal alignment of four conserved sites in ULK1 and two sites in ULK2 matching the optimal AMPK substrate motif. (B) ULK1 and GST or GST-14-3-3 expression vectors were transfected into human embryonic kidney (HEK)293T cells, and placed in media containing […] STO-609 (STO), vehicle (veh), or 5 mM phenformin (Phen) for 1 h. Cell lysates and GST pulldowns were immunoblotted as indicated. […] (D) HEK293T cells transfected with myc-tagged wild-type ULK1 or indicated Serine-to-alanine ULK1 mutants were treated with either vehicle or 1 mM phenformin for 1 h, or were co-transfected with a constitutively active AMPKα1 (aa1-312) mammalian expression vector (11). Proteins from lysates were immunoblotted with phospho-specific antibodies as indicated. […] Phosphorylation of myc-ULK1 detected by immunoblotting with indicated phospho-specific antibodies. […]
Cell lysis, immunoprecipitations, and mammalian autophagy analysis. […] Immunoprecipitated proteins were denatured by the addition of […] of sample buffer and boiling for 5 minutes, resolved by 8%-16% SDSPAGE, and analyzed by immunoblottina as described. […] Quantification of westerns blots was achieved using Kodak Multi Gage software and normalizing to the appropriate loading control (actin when comparing p62 or LC3, or total protein level when comparing phospho-specific antibodies). […]

[4] = tested on: endogenous ULK1; assay: Immunoblot of endogenous ULK1 P-Ser555 in primary murine embryonic fibroblasts (MEFs); type: cell-based; details: wild-type vs AMPK-deficient, 2 mM AICAR for 1 h
[5] = tested on: T1, myc-tagged catalytically inactive (KI: K46I) ULK1
T1 sequence: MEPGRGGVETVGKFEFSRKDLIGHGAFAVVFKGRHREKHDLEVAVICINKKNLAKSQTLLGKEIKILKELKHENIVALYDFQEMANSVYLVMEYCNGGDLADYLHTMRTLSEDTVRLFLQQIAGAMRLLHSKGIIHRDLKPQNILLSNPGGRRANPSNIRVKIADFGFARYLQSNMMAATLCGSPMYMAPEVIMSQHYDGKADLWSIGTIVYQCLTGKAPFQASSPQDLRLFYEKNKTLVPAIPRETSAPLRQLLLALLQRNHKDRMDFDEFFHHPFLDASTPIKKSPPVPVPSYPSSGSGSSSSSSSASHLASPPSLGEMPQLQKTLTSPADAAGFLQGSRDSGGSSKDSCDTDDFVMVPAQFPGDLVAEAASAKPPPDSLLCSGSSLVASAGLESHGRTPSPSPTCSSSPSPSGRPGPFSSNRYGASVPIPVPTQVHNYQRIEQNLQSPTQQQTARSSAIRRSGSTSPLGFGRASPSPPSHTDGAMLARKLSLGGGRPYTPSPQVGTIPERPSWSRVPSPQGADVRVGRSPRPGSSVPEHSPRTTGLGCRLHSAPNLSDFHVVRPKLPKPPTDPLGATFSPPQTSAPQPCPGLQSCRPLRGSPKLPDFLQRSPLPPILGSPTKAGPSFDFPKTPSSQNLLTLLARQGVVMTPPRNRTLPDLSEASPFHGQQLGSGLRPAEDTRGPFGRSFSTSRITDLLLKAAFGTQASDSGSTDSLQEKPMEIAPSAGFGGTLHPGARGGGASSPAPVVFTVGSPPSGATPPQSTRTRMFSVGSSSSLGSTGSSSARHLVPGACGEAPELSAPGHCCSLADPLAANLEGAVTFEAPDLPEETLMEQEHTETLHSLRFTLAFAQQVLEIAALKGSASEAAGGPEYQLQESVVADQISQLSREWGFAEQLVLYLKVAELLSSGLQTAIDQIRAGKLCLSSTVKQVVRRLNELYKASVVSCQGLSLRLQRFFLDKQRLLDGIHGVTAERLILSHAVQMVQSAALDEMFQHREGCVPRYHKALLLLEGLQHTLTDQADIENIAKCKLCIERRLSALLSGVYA

[6] = molecular target: myc-tagged wild-type raptor (UniProt Q8N122)
myc-tagged wild-type raptor, sequence (Q8N122 whole entry, looked up): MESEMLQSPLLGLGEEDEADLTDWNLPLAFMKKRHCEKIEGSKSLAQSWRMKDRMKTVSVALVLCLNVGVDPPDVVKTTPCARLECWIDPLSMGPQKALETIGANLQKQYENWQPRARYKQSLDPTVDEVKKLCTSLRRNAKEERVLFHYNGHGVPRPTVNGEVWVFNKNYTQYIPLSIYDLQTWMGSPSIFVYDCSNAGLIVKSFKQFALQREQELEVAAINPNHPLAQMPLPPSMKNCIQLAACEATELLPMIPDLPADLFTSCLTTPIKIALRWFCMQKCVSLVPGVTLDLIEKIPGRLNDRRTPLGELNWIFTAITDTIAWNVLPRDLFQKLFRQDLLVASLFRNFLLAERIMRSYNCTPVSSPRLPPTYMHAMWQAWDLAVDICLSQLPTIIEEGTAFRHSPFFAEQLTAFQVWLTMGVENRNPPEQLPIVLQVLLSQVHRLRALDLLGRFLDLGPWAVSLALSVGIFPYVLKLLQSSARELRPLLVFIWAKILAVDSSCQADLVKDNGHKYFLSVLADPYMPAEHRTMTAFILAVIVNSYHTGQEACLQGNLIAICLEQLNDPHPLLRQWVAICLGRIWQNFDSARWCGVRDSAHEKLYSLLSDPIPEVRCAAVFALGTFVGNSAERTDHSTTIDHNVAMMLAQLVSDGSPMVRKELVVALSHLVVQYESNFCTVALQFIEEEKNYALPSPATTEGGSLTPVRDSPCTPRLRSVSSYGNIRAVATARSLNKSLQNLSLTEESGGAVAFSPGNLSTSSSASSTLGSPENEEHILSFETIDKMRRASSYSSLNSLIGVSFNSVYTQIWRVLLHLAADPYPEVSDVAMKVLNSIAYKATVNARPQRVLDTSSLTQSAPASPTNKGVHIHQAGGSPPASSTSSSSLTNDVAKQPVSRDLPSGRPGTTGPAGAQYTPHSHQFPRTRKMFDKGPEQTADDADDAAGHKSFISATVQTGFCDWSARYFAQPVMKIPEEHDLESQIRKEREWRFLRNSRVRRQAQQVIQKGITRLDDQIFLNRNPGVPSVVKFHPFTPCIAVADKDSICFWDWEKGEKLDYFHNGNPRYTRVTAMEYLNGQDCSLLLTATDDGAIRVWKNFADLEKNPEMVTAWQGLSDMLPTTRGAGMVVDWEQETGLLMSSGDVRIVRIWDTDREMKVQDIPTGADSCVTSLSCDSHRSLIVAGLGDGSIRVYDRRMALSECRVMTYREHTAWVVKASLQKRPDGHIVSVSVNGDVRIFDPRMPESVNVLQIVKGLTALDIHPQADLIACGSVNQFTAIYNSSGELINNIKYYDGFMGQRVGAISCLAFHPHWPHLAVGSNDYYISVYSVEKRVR

For CN(C)C(=N)N=C(N)N [metformin], the “phosphorylation of endogenous ULK1 Ser555” value [1] was “Increased phosphorylation of endogenous ULK1 Ser555 was observed in wild-type but not AMPK-deficient hepatocytes”.
In the case of [H]/N=C(/N)N/C(=N/[H])NCCc1ccccc1 [phenformin], the “tryptic peptides containing Phospho-Ser555 and Phospho-Ser637 of ULK1, quantitative mass spectrometry (MS/MS TIC ratio quantification)” value ([2]; 5 mM phenformin for 1 h) is reported as “induced”, the “phosphorylation of ULK1 candidate AMPK sites Ser555, Thr574, Ser637 detected by tandem mass spectrometry” value ([2]; epitope-tagged ULK1, with or without 5 mM phenformin for 1 hour) is reported as “all three were phosphorylated only after phenformin treatment” and the “phosphorylation of ULK1 Ser467 and Ser555 (phospho-specific antibodies)” value [3] is reported as “Phosphorylation of both sites was induced”.
For NC(=O)c1ncn([C@@H]2O[C@H](CO)[C@@H](O)[C@H]2O)c1N [AICAR], the “phosphorylation of endogenous ULK1 on Ser555” value [4] was “phosphorylation of endogenous ULK1 was observed on Ser555 in an AMPK-dependent manner; also recorded: phosphorylated on Ser555 in an AMPK-dependent manner”.
For “purified active AMPK heterotrimer (partially purified rat liver, Millipore cat #14-305)”, the “in vitro kinase assay, 32P incorporation” value [5] was “AMPK phosphorylated ULK1 to a greater extent than an established substrate, Raptor” and the “in vitro kinase assay, 32P incorporation” value [6] was “AMPK phosphorylated ULK1 to a greater extent than an established substrate, Raptor”.

Reference: patent publication US20160289651A1, “ULK1 COMPOSITIONS, INHIBITORS, SCREENING AND METHODS OF USE” (Salk Institute for Biological Studies, priority 2009, published 2016)
